In US20200369629A1, “BENZAMIDE COMPOUNDS AND THEIR USE AS HERBICIDES” (BASF SE, priority 2017, published 2020):

Key:
Assay type in all cases: in vivo
SETFA (Setaria faberi) = test: Greenhouse pre-emergence test, test series 2, SETFA; conditions: application rate 125 g/ha, scale 0 to 100 (100 = no emergence, 0 = no damage)
Description: (§1) The seeds of the test plants were sown separately for each species. For the pre-emergence treatment, the active ingredients, which had been suspended or emulsified in water, were applied directly after sowing by means of finely distributing nozzles. The containers were irrigated gently to promote germination and growth and subsequently covered with transparent plastic hoods until the plants had rooted. This cover caused uniform germination of the test plants, unless this had been impaired by the active ingredients. For the post-emergence treatment, the test plants were first grown to a height of 3 to 15 cm, depending on the plant habit, and only then treated with the active ingredients which had been suspended or emulsified in water. For this purpose, the test plants were either sown directly and grown in the same containers, or they were first grown separately as seedlings and transplanted into the test containers a few days prior to treatment. Depending on the species, the plants were kept at 10-25° C. or 20-25° C., respectively. The test period extended over 2 to 4 weeks. During this time, the plants were tended, and their response to the individual treatments was evaluated. Evaluation was carried out using a scale from 0 to 100. 100 means no emergence of the plants, or complete destruction of at least the aerial moieties, and 0 means no damage, or normal course of growth. A good herbicidal activity is given at values of at least 70 and a very good herbicidal activity is given at values of at least 85. Test Series 2: At an application rate of 125 g/ha the following compounds were tested in pre-emergence tests against SETFA (Setaria faberi)

[1] = test system: AMARE (Amaranthus retroflexus); test: Greenhouse post-emergence test, test series 1, AMARE; conditions: application rate 62.5 g/ha, scale 0 to 100 (100 = complete destruction, 0 = no damage)
Description: as §1, with “Series 1:” for “Series 2:”, “of 62.5” for “of 125”, “in post-emergence” for “in pre-emergence”, “tests against: AMARE (Amaranthus retroflexus)” for “tests against SETFA (Setaria faberi)”

[2] = test system: CHEAL (Chenopodium album); test: Greenhouse post-emergence test, test series 1, CHEAL; conditions: application rate 62.5 g/ha, scale 0 to 100 (100 = complete destruction, 0 = no damage)
Description: as §1, with “Series 1:” for “Series 2:”, “of 62.5” for “of 125”, “in post-emergence” for “in pre-emergence”, “tests against: CHEAL (Chenopodium album)” for “tests against SETFA (Setaria faberi)”

[3] = test system: ALOMY (Alopecurus myosuroiedes); test: Greenhouse post-emergence test, test series 1, ALOMY; conditions: application rate 62.5 g/ha, scale 0 to 100 (100 = complete destruction, 0 = no damage)
Description: as §1, with “Series 1:” for “Series 2:”, “of 62.5” for “of 125”, “in post-emergence” for “in pre-emergence”, “tests against: ALOMY (Alopecurus myosuroiedes)” for “tests against SETFA (Setaria faberi)”

Cc1c(NC(=O)N(C)CC(F)(F)F)c(Br)cc(F)c1C(=O)Nc1nnnn1C [Example 1, 4-bromo-6-fluoro-2-methyl-N-(1-methyltetrazol-5-yl)-3-[[methyl(2,2,2-trifluoroethyl)carbamoyl]amino]benzamide]
> 85%: pest or weed control at 125 g/ha (SETFA (Setaria faberi)) | pest or weed control at 62.5 g/ha [1] | pest or weed control at 62.5 g/ha [2] | pest or weed control at 62.5 g/ha [3]

CCN(CC(F)(F)F)C(=O)Nc1c(Br)cc(F)c(C(=O)Nc2nnnn2C)c1C [Example 2, 4-bromo-6-fluoro-2-methyl-N-(1-methyltetrazol-5-yl)-3-[[ethyl(2,2,2-trifluoroethyl)carbamoyl]amino]benzamide]
> 85%: pest or weed control at 125 g/ha (SETFA (Setaria faberi)) | pest or weed control at 62.5 g/ha [1] | pest or weed control at 62.5 g/ha [2] | pest or weed control at 62.5 g/ha [3]

Cc1c(NC(=O)N(CC(F)(F)F)CC(F)(F)F)c(Br)cc(F)c1C(=O)Nc1nnnn1C [Example 3]
> 85%: pest or weed control at 125 g/ha (SETFA (Setaria faberi)) | pest or weed control at 62.5 g/ha [1] | pest or weed control at 62.5 g/ha [2] | pest or weed control at 62.5 g/ha [3]

Cc1c(NC(=O)N(CC(F)(F)F)C2CC2)c(Br)cc(F)c1C(=O)Nc1nnnn1C [Example 6]
> 85%: pest or weed control at 125 g/ha (SETFA (Setaria faberi)) | pest or weed control at 62.5 g/ha [1] | pest or weed control at 62.5 g/ha [2] | pest or weed control at 62.5 g/ha [3]

Cn1nnnc1NC(=O)c1c(F)cc(Cl)c(NC(=O)N(CC(F)(F)F)C2CC2)c1Cl [Example 7]
> 85%: pest or weed control at 125 g/ha (SETFA (Setaria faberi)) | pest or weed control at 62.5 g/ha [1] | pest or weed control at 62.5 g/ha [2] | pest or weed control at 62.5 g/ha [3]

CCN(CC(F)(F)F)C(=O)Nc1c(Cl)cc(F)c(C(=O)Nc2nnnn2C)c1Cl [Example 8]
> 85%: pest or weed control at 125 g/ha (SETFA (Setaria faberi)) | pest or weed control at 62.5 g/ha [1] | pest or weed control at 62.5 g/ha [2]

CN(CC(F)(F)F)C(=O)Nc1c(Cl)cc(F)c(C(=O)Nc2nnnn2C)c1Cl [Example 9, 2,4-dichloro-6-fluoro-N-(1-methyltetrazol-5-yl)-3-[[methyl(2,2,2-trifluoroethyl)carbamoyl]amino]benzamide]
> 85%: pest or weed control at 62.5 g/ha [1] | pest or weed control at 62.5 g/ha [2] | pest or weed control at 62.5 g/ha [3]

CN(CC(F)(F)F)C(=O)Nc1c(C(F)(F)F)cc(F)c(C(=O)Nc2nnnn2C)c1Cl [Example 10]
> 85%: pest or weed control at 125 g/ha (SETFA (Setaria faberi)) | pest or weed control at 62.5 g/ha [1] | pest or weed control at 62.5 g/ha [2] | pest or weed control at 62.5 g/ha [3]

Cc1c(NC(=O)N(C)CC(F)(F)F)c(Cl)cc(F)c1C(=O)Nc1nnnn1C [Example 12]
> 85%: pest or weed control at 62.5 g/ha [1] | pest or weed control at 62.5 g/ha [2] | pest or weed control at 62.5 g/ha [3]

Cc1c(NC(=O)N(CC(F)(F)F)C(C)C)c(Cl)cc(F)c1C(=O)Nc1nnnn1C [Example 13]
> 85%: pest or weed control at 125 g/ha (SETFA (Setaria faberi)) | pest or weed control at 62.5 g/ha [1] | pest or weed control at 62.5 g/ha [2]

CC(C)N(CC(F)(F)F)C(=O)Nc1c(C(F)(F)F)cc(F)c(C(=O)Nc2nnnn2C)c1Cl [Example 14]
> 85%: pest or weed control at 125 g/ha (SETFA (Setaria faberi)) | pest or weed control at 62.5 g/ha [1] | pest or weed control at 62.5 g/ha [2] | pest or weed control at 62.5 g/ha [3]

CCN(CC(F)(F)F)C(=O)Nc1c(Cl)cc(F)c(C(=O)Nc2nnnn2C)c1C [Example 18]
> 85%: pest or weed control at 125 g/ha (SETFA (Setaria faberi)) | pest or weed control at 62.5 g/ha [1] | pest or weed control at 62.5 g/ha [2] | pest or weed control at 62.5 g/ha [3]

Cc1c(NC(=O)N(CC(F)(F)F)CC(F)(F)F)c(Cl)cc(F)c1C(=O)Nc1nnnn1C [Example 19]
> 85%: pest or weed control at 62.5 g/ha [1] | pest or weed control at 62.5 g/ha [2] | pest or weed control at 62.5 g/ha [3]

CC(C)N(CC(F)(F)F)C(=O)Nc1c(Cl)cc(F)c(C(=O)Nc2nnnn2C)c1Cl [Example 20]
> 85%: pest or weed control at 62.5 g/ha [1] | pest or weed control at 62.5 g/ha [2] | pest or weed control at 62.5 g/ha [3]

Cc1c(NC(=O)N(CC(F)(F)F)C2CC2)c(Cl)cc(F)c1C(=O)Nc1nnnn1C [Example 21]
> 85%: pest or weed control at 125 g/ha (SETFA (Setaria faberi)) | pest or weed control at 62.5 g/ha [1] | pest or weed control at 62.5 g/ha [2] | pest or weed control at 62.5 g/ha [3]

Cn1nnnc1NC(=O)c1c(F)cc(C(F)(F)F)c(NC(=O)N(CC(F)(F)F)CC(F)(F)F)c1Cl [Example 22]
> 85%: pest or weed control at 125 g/ha (SETFA (Setaria faberi)) | pest or weed control at 62.5 g/ha [1] | pest or weed control at 62.5 g/ha [2] | pest or weed control at 62.5 g/ha [3]
